Assay [1] has as its system CNE-2. Description: Anticancer activity against human CNE-2 cells assessed as reduction in cell viability incubated for 72 hrs by MTT assay. Type of assay: functional, cell-based. To be noted: CNE-2, 72 h.
A short description of assay [2]: cells. To be noted: Homo sapiens, SPCA1, 72 h.
Description: Anticancer activity against human SPCA1 cells assessed as reduction in cell viability incubated for 72 hrs by MTT assay
Assay [3] has as its system HeLa. Kind of assay: cells. Conditions: Homo sapiens, 72 h.
Description: Anticancer activity against human HeLa cells assessed as reduction in cell viability incubated for 72 hrs by MTT assay
The subject of assay [4] is HCT-116. Description: cells. To be noted: Homo sapiens, HCT-116, 72 h.
Description: Anticancer activity against human HCT-116 cells assessed as reduction in cell viability incubated for 72 hrs by MTT assay
Assay [5] deals with HepG2. Description: cells. Conditions: Homo sapiens, HepG2, 72 h.
Description: Anticancer activity against human HepG2 cells assessed as reduction in cell viability incubated for 72 hrs by MTT assay
A short description of assay [6]: Antiproliferative activity against human GBM-0627-GFD cells assessed as reduction in cell viability by MTT assay. Type of assay: functional, cell-based.
Assay [7] concerns MDA-MB-231. Description: cells. It counts as functional, cell-based. Conditions: Homo sapiens, MDA-MB-231, 48 h.
Description: Anticancer activity against human MDA-MB-231 cells assessed as reduction in cell growth incubated for 48 hrs by MTT assay
Assay [8] has as its target Acetylcholinesterase (Electrophorus electricus, UniProt O42275). Kind of assay: Inhibition of electric eel AchE using acetylthiocholine as substrate incubated for 30 mins by Ellman's method.
The target of assay [9] is Cholinesterase (Equus caballus, UniProt P81908). Kind of assay: Inhibition of equine serum BuChE using butyrylthiocholine iodide as substrate measured for 30 mins by ELLman's method.
Assay [10] concerns Staphylococcus aureus. Kind of assay: microbe, parasite or virus in culture. To be noted: Staphylococcus aureus, 171, 24 h.
Description: Antimicrobial activity against methicillin-resistant Staphylococcus aureus 171 clinical isolate assessed as bacterial growth inhibition incubated for 24 hrs by CLSI based broth microdilution method
Assay [11] has as its system Escherichia coli. Kind of assay: microbe, parasite or virus in culture.
Description: Antibacterial activity against Escherichia coli assessed as inhibition of bacterial growth by broth microdilution method
Assay [12] deals with Pseudomonas aeruginosa. Description: microbe, parasite or virus in culture. To be noted: Pseudomonas aeruginosa, 126, 24 h.
Description: Antibacterial activity against multidrug-resistant Pseudomonas aeruginosa 126 clinical isolate assessed as reduction in bacterial growth incubated for 24 hrs by CLSI based broth microdilution method
In assay [13] the test system is Acinetobacter baumannii. Description: microbe, parasite or virus in culture. Conditions: ATCC 19606.
Description: Antibacterial activity against Acinetobacter baumannii ATCC 19606 assessed as inhibition of bacterial growth by broth microdilution method
In assay [14] the test system is CNE. Description: cells. To be noted: Homo sapiens, 48 h. Type of assay: functional, cell-based.
Description: Anticancer activity against human CNE cells assessed as reduction in cell growth incubated for 48 hrs by MTT assay
In assay [15] the test system is SK-OV-3. Description: cells. Type of assay: functional, cell-based. To be noted: Homo sapiens, SK-OV-3, 48 h.
Description: Anticancer activity against human SK-OV-3 cells assessed as reduction in cell growth incubated for 48 hrs by MTT assay
Assay [16] has as its system KB. Description: Antiproliferative activity against human KB cells assessed as reduction in cell viability incubated for 48 hrs by CCK-8 assay. It counts as functional, cell-based.
Assay [17] deals with HeLa. Description: Antiproliferative activity against human HeLa cells assessed as reduction in cell viability incubated for 48 hrs by CCK-8 assay. It counts as functional, cell-based.
In assay [18] the test system is HEK-293T. Kind of assay: Antiproliferative activity against HEK293T cells assessed as reduction in cell viability incubated for 48 hrs by CCK-8 assay. Type of assay: functional, cell-based. Conditions: Homo sapiens.
Assay [19] has as its system HepG2. Kind of assay: cells. To be noted: Homo sapiens, HepG2, 48 h.
Assay [20] has as its system MCF7. Kind of assay: Antiproliferative activity against human MCF7 cells assessed as reduction in cell viability incubated for 48 hrs by CCK-8 assay. Type of assay: functional, cell-based. Conditions: MCF7, 48 h.

≈ marks a conversion by molar mass, not a printed value.

Sequence of Cholinesterase (P81908 whole entry): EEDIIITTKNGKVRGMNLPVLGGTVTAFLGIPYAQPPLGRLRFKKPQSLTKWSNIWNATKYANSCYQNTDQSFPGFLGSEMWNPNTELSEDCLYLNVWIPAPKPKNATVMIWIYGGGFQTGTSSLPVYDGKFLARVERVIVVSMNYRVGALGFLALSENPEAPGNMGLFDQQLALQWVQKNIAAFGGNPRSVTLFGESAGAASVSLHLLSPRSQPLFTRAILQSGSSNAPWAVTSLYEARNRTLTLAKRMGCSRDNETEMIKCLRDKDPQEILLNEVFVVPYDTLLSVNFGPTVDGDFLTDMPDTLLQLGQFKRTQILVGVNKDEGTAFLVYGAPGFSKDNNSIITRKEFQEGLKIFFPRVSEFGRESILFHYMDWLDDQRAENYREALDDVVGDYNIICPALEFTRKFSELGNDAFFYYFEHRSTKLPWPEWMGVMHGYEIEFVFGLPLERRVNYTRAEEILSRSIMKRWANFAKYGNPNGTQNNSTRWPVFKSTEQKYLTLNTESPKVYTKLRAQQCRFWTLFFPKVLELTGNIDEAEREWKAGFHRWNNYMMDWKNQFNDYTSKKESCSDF
Sequence of Acetylcholinesterase (O42275 whole entry): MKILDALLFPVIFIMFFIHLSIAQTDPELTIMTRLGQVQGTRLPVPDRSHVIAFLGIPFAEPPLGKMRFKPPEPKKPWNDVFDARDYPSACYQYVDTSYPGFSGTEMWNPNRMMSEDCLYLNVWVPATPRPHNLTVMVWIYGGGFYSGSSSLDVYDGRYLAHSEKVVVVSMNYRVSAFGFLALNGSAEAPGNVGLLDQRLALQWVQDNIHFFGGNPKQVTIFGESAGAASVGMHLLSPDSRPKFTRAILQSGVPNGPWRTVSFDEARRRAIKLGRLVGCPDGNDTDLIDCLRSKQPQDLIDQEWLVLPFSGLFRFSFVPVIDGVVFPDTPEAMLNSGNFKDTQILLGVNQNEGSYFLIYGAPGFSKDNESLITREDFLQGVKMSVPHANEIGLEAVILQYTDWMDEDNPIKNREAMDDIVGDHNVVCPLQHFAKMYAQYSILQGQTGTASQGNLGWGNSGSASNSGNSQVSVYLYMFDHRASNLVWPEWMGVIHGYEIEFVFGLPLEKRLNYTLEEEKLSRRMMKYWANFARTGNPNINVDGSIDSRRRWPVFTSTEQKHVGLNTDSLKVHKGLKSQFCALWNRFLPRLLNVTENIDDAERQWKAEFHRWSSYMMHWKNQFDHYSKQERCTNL

As to `CCOP(=O)(OCC)C(NC(=O)c1cc(O)c2c(c1)C(=O)c1cccc(O)c1C2=O)c1cccc(Cl)c1` (configuration not stated), the concentration for half-maximal inhibition (IC50) in [1] was 68 µM; in assay [2] it was 28.3 µM; in [3] it was 35.2 µM; in [4], 48.2 µM; in [5], 39.2 µM.

For the compound `CCOP(=O)(OCC)C(NC(=O)c1cc(O)c2c(c1)C(=O)c1cccc(O)c1C2=O)c1cccc(OC)c1` (configuration not stated), the results for the IC50 in assay [1] and in assay [2] were 24.1 µM and 28.3 µM, respectively.

In the case of `CCOP(=O)(OCC)C(NC(=O)c1cc(O)c2c(c1)C(=O)c1cccc(O)c1C2=O)c1ccccc1OC` (configuration not stated), the IC50 in assay [1] was found to be 28.6 µM; in [2], 15 µM.

As for `CCOP(=O)(OCC)C(NC(=O)c1cc(O)c2c(c1)C(=O)c1cccc(O)c1C2=O)c1ccccc1` (configuration not stated), the IC50 was 34.3 µM in assay [1] and 27.4 µM in [2].

`CCOP(=O)(OCC)C(NC(=O)c1cc(O)c2c(c1)C(=O)c1cccc(O)c1C2=O)c1ccc(OC)cc1` (configuration not stated): the values for the IC50 in assay [1] and in assay [2] were 42.9 µM and 38.9 µM, respectively.

With `CCOP(=O)(OCC)C(C)(NC(=O)c1cc(O)c2c(c1)C(=O)c1cccc(O)c1C2=O)c1ccc(C)cc1` (configuration not stated), the IC50 in assay [1] was 33.8 µM; in [2] it was 16.9 µM; in [3], over 50 µM; in [4] it was 30.6 µM.

`CCOP(=O)(OCC)C(C)(NC(=O)c1cc(O)c2c(c1)C(=O)c1cccc(O)c1C2=O)c1ccccc1` (configuration not stated): the IC50 in assay [1] was 38.3 µM; in assay [2], 25.1 µM; in [3], over 50 µM; in assay [4], 23.4 µM.

For the compound `CCOP(=O)(OCC)C(C)(CCc1ccccc1)NC(=O)c1cc(O)c2c(c1)C(=O)c1cccc(O)c1C2=O` (configuration not stated), the 50% inhibitory concentration (IC50) in [1] worked out at 27.3 µM; in [2] it was 9.01 µM; in assay [3], 45.4 µM; in [4] it was 12.7 µM.

For `O=C(CCCCCNC(=O)c1cc(O)c2c(c1)C(=O)c1cccc(O)c1C2=O)NO`, in assay [6], the IC50 was found to be 5.5 µM.

For `Cc1ccc(Nc2ncnc3ccc(NC(=O)c4cc(OCc5ccccc5)c5c(c4)C(=O)c4cccc(OCc6ccccc6)c4C5=O)cc23)cc1`, in assay [7], half-maximal inhibition (IC50) was put at 3.1 µM.

Regarding `O=C(NCCCCCCCCNc1c2c(nc3ccccc13)CCCC2)c1cc(O)c2c(c1)C(=O)c1cccc(O)c1C2=O`, the values for the IC50 in assay [8] and in assay [9] were 0.148 µM and 0.36 µM, respectively.

As for `COc1ccc(C[n+]2ccc(CCCOC(=O)c3cc(O)c4c(c3)C(=O)c3cccc(O)c3C4=O)cc2)cc1.[Br-]`, the MIC in assay [10] is 16 mg/L; in assay [11], over 128 mg/L; in [12], 32 mg/L; in [13], 128 mg/L.

In the case of `O=C(NCCCCCCNc1c2c(nc3cc(Cl)ccc13)CCCC2)c1cc(O)c2c(c1)C(=O)c1cccc(O)c1C2=O`, the IC50 in [8] is 0.022 µM; in assay [9] it was 0.773 µM.

With `Cc1ccc(C[n+]2ccc(CCCOC(=O)c3cc(O)c4c(c3)C(=O)c3cccc(O)c3C4=O)cc2)cc1.[Br-]`, the MIC in [10] is 8 mg/L; in [11], 64 mg/L; in assay [12] it was 16 mg/L; in assay [13], over 128 mg/L.

As for `COc1ccc(Nc2ncnc3ccc(NC(=O)c4cc(OCc5ccccc5)c5c(c4)C(=O)c4cccc(OCc6ccccc6)c4C5=O)cc23)cc1`, the values for the half-inhibitory concentration (IC50) in assay [14], in assay [7] and in assay [15] were 24.8 µM, 42.4 µM and over 100 µM, respectively.

On to `N#Cc1ccc(C[n+]2ccc(CCCNC(=O)c3cc(O)c4c(c3)C(=O)c3cccc(O)c3C4=O)cc2)cc1.[Br-]`, for which the MIC in [10] is 16 mg/L; in assay [11], 64 mg/L; in assay [12], 32 mg/L; in assay [13], over 128 mg/L.

For the compound `COc1cccc(Nc2ncnc3ccc(NC(=O)c4cc(OCc5ccccc5)c5c(c4)C(=O)c4cccc(OCc6ccccc6)c4C5=O)cc23)c1`, the 50% inhibitory concentration (IC50) in assay [14] is 56.4 µM; in [7], 74.1 µM; in assay [15] it was 68.6 µM.

Take `CCCCOc1cccc2c1C(=O)c1c(OCCCC)cc(C(=O)N[C@H](C(=O)O)C(C)C)cc1C2=O`: the IC50 in assay [16] was 28.6 µM; in assay [17] it was 67.8 µM; in assay [18] it was 43.1 µM; in assay [19], 54.4 µM; in assay [20] it was over 100 µM.

Take `N[C@@H](CCCCNC(=O)c1cc(O)c2c(c1)C(=O)c1cccc(O)c1C2=O)C(=O)O`: the 50% inhibitory concentration (IC50) in [6] is over 80 µM.

`O=C(NCCCCCCNc1c2c(nc3ccccc13)CCC2)c1cc(O)c2c(c1)C(=O)c1cccc(O)c1C2=O`: the IC50 was 0.543 µM in assay [8] and 0.219 µM in assay [9].

Turning to `CC(C)c1ccc(COc2cccc3c2C(=O)c2c(OCc4ccc(C(C)C)cc4)cc(C(=O)N[C@H](C(=O)O)C(C)C)cc2C3=O)cc1`, the 50% inhibitory concentration (IC50) in assay [16] is 9.4 µM; in assay [17] it was 37.5 µM; in assay [18], 1.9 µM; in assay [19], 5.8 µM; in [20] it was 13.9 µM.

Take `O=C(Nc1ccc2ncnc(Nc3ccc(F)cc3)c2c1)c1cc(OCc2ccccc2)c2c(c1)C(=O)c1cccc(OCc3ccccc3)c1C2=O`: the IC50 was 12.4 µM in assay [14], 3 µM in assay [7] and 20.5 µM in [15].

As for `CC(C)[C@H](NC(=O)c1cc(OCc2ccccc2)c2c(c1)C(=O)c1cccc(OCc3ccccc3)c1C2=O)C(=O)O`, the half-inhibitory concentration (IC50) in assay [16] was 15.6 µM; in assay [17] it was 44.9 µM; in assay [18] it was 21.5 µM; in assay [19] it was 36.1 µM; in assay [20] it was 36.5 µM.

Consider `O=C(NCCCCNc1c2c(nc3ccccc13)CCCC2)c1cc(O)c2c(c1)C(=O)c1cccc(O)c1C2=O`, for which the IC50 turned out to be 0.0587 µM in [8] and 0.286 µM in assay [9].

For the compound `Cc1cccc(Nc2ncnc3ccc(NC(=O)c4cc(OCc5ccccc5)c5c(c4)C(=O)c4cccc(OCc6ccccc6)c4C5=O)cc23)c1`, the IC50 in [14] was 5.9 µM; in assay [7], 49.9 µM; in assay [15], over 100 µM.

With `CC(C)[C@H](NC(=O)c1cc(OCc2cccc(F)c2)c2c(c1)C(=O)c1cccc(OCc3cccc(F)c3)c1C2=O)C(=O)O`, the IC50 is 17.8 µM in [16]; 35.4 µM in assay [17]; 12.9 µM in assay [18]; 29.6 µM in assay [19]; 38.6 µM in [20].

With `CC(C)[C@H](NC(=O)c1cc(OCCCc2ccccc2)c2c(c1)C(=O)c1cccc(OCCCc3ccccc3)c1C2=O)C(=O)O`, the 50% inhibitory concentration (IC50) in [16] stood at 4.9 µM; in assay [17], 9.4 µM; in assay [18] it was 1.6 µM; in [19] it was 3.6 µM; in assay [20], 4.5 µM.

As to `CO/N=C(\C(=O)N[C@@H]1C(=O)N2C(C(=O)O)=C(COC(N)=O)CS[C@H]12)c1ccco1` [CEFUROXIME], the MIC in assay [10] was 1020 mg/L (≈ 2410 µM); in assay [11] it was 64 mg/L (≈ 151 µM); in assay [12] it was 1020 mg/L (≈ 2410 µM); in assay [13], 1020 mg/L (≈ 2410 µM).

`O=c1[nH]cc(F)c(=O)[nH]1` [FLUOROURACIL]: the IC50 came to 40.2 µM in assay [1], 42.2 µM in assay [2] and 30 µM in assay [5].

Values taken from ChEMBL document CHEMBL6092146 (Bioorg Med Chem, 2024).
